Assays:
ROCK1 = ROCK1 (Homo sapiens, UniProt Q13464); assay: ROCK1 inhibition, ADP-Glo Kinase Assay
GRK1 = target: T1, GRK1 (Homo sapiens, UniProt Q15835); assay: GRK1 kinase inhibition
T1 sequence (Q15835 1-563): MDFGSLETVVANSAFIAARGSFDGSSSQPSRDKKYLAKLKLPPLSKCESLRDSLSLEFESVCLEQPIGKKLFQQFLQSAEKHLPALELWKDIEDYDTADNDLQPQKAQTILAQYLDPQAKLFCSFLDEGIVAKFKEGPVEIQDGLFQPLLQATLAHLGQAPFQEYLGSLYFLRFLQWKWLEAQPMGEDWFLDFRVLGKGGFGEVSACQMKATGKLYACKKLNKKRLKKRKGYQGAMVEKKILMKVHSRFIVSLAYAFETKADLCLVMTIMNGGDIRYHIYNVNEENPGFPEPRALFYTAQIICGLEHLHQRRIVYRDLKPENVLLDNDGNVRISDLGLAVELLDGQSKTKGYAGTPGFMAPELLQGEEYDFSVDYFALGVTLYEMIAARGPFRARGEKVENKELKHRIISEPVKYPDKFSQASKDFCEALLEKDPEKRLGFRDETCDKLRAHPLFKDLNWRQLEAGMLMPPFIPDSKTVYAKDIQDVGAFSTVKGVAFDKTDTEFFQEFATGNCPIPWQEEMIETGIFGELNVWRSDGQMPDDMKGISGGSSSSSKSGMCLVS

[1] = test system: cardiomyocytes isolated from adult mice; assay: Contractility in mouse cardiomyocytes; details: compared with lead 2; isoproterenol stimulation
GRK5 = GRK5 (Homo sapiens, UniProt P34947); assay: GRK5 kinase inhibition
Chain of GRK5 (P34947 whole entry, species assumed): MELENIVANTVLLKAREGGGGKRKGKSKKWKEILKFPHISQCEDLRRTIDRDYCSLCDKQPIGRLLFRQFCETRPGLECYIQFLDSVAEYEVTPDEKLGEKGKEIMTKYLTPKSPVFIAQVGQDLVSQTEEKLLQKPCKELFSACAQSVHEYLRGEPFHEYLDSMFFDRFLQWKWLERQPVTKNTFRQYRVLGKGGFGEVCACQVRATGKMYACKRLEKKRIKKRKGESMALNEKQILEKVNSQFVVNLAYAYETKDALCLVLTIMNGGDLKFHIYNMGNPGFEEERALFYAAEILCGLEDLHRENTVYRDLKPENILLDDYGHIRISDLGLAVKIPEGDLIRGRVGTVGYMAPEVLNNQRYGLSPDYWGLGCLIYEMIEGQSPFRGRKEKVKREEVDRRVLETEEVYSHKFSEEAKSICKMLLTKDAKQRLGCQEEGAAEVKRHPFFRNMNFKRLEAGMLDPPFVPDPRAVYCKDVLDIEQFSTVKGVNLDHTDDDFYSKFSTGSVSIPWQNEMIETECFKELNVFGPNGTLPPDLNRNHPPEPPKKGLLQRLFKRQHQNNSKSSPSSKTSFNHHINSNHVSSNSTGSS

PKA = PKA (Homo sapiens, UniProt P17612); assay: PKA inhibition, ADP-Glo Kinase Assay

Chain of ROCK1 (Q13464 whole entry, species assumed): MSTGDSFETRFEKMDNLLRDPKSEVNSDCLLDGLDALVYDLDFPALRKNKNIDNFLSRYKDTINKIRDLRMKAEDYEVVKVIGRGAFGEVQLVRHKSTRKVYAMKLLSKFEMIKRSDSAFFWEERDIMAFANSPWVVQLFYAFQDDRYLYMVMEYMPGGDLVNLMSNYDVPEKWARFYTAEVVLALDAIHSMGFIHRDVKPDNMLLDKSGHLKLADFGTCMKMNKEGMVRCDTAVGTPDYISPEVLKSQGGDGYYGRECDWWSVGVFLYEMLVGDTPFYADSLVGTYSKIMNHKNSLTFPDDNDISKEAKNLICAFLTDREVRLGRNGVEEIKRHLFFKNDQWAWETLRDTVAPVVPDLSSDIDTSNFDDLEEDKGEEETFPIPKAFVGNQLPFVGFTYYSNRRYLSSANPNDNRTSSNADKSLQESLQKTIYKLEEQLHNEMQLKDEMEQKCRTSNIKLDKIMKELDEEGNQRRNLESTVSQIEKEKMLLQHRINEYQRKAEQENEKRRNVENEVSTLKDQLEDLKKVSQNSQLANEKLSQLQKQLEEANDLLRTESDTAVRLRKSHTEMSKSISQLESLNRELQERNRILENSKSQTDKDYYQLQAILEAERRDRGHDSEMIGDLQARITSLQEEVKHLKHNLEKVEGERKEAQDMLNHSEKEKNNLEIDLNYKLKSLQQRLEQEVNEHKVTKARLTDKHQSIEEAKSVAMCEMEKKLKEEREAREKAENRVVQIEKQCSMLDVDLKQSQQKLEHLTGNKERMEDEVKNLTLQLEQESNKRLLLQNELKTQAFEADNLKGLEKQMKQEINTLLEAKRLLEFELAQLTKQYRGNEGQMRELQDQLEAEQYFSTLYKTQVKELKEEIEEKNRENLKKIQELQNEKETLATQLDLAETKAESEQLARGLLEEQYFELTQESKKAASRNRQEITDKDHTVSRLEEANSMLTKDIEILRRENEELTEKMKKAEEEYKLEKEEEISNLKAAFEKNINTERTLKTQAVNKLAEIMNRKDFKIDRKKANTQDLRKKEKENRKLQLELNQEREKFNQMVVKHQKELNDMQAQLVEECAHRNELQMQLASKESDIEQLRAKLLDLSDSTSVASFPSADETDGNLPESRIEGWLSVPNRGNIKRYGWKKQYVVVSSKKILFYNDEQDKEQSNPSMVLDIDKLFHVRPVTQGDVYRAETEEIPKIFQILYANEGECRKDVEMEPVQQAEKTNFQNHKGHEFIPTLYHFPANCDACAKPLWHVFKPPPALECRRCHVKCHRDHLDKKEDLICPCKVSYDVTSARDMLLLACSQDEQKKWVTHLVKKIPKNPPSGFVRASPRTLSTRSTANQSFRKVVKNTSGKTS

## CC1=C(C(=O)Nc2ccc3[nH]ncc3c2)C(c2ccc(F)c(C(=O)NCc3nccc4ccccc34)c2)NC(=O)N1 (centres unmarked) [Compound 12k, 4-(4-Fluoro-3-((isoquinolin-1-ylmethyl)carbamoyl)phenyl)-N-(1H-indazol-5-yl)-6-methyl-2-oxo-1,2,3,4-tetrahydropyrimidine-5-carboxamide]
ROCK1
  IC50: ~0.01 µM
GRK1
  increase in GRK1 potency in comparison to 12h: 50 fold

## COc1cccc(OC)c1CNC(=O)c1cc(C2NC(=O)NC(C)=C2C(=O)Nc2ccc3[nH]ncc3c2)ccc1F (centres unmarked) [Compound 12n, 4-(3-((2,6-Dimethoxybenzyl)carbamoyl)-4-fluorophenyl)-N-(1H-indazol-5-yl)-6-methyl-2-oxo-1,2,3,4-tetrahydropyrimidine-5-carboxamide]
ROCK1
  decrease in potency at ROCK1 compared to 12e: over 175 fold
  inhibition of ROCK1: no detectable inhibition
[1]
  potency at stimulating cardiomyocyte contraction: equivalent to or slightly more potent than the lead 2
GRK5
  decrease in potency at GRK5 compared to 12e: 43 fold
GRK1
  decrease in potency at GRK1 compared to 12e: 6 fold
PKA
  IC50: > 100 µM

## CC1=C(C(=O)Nc2ccc3[nH]ncc3c2)C(c2ccc(F)c(C(=O)NCc3c(Cl)cccc3Cl)c2)NC(=O)N1 (centres unmarked) [Compound 12l, 4-(3-((2,6-Dichlorobenzyl)carbamoyl)-4-fluorophenyl)-N-(1H-indazol-5-yl)-6-methyl-2-oxo-1,2,3,4-tetrahydropyrimidine-5-carboxamide]
GRK5
  selectivity for GRK2 over GRK5: over 770 fold
GRK1
  selectivity for GRK2 over GRK1: over 770 fold
PKA
  IC50: > 100 µM

Source: paper PMC4890168 (Journal of medicinal chemistry, 2016)
